Activity calls are given as the source filed them. The calls are words filed in the database; no cut-off is given here.
What was measured:
[1] = system: Mus musculus; assay: Antiinflammatory activity in C57BL/6J mouse paw assessed as reduction in carrageenan-induced paw edema volume at 10 mg/kg administered 30 mins after carrageenan challenge and then once daily following initial dose measured 74 hrs post inflammation induction and 2 hrs post last dose by hematoxylin and eosin-staining based assay; format: functional, organism-based
[2] = target: T1, C-X-C chemokine receptor type 4 (Homo sapiens, UniProt P61073); assay: Inhibition of CXCR4/CXCL12 interaction-mediated chemotaxis in human MDA-MB-231 cells assessed as inhibition of cell invasion at 100 nM after 22 hrs by hematoxylin/eosin dye-based matrigel assay relative to control
T1 sequence (P61073 whole entry): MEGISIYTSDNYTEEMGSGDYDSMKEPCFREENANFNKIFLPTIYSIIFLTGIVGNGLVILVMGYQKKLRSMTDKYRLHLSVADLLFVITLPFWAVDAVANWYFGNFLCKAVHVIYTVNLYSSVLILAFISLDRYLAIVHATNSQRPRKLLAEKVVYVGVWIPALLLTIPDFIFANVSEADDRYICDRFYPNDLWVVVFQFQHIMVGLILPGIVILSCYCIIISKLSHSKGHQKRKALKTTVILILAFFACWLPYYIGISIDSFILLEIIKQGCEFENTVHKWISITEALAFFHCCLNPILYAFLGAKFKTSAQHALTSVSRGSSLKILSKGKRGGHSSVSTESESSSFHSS

[3] = system: Mus musculus; assay: Toxicity in carrageenan-induced paw edema C57BL/6J mouse model assessed as mortality at 10 mg/kg administered 30 mins after carrageenan challenge and then once daily following initial dose measured 74 hrs post inflammation induction and 2 hrs post last dose; format: organism-based; details: in vivo
[4] = system: Mus musculus; assay: Anti-inflammatory activity in C57BL/6J mouse assessed as suppression of carrageenan-induced paw edema at 10 mg/kg administered 30 mins after carrageenan challenge and then once daily following initial dose measured 74 hrs post inflammation induction and 2 hrs post last dose relative to control; format: functional
[5] = target: T1, C-X-C chemokine receptor type 4; assay: Displacement of biotinylated-TN14003 from CXCR4 in human MDA-MB-231 cells assessed as reduction in fluorescence preincubated for 10 mins followed by biotinylated-TN14003 addition measured after 30 mins by streptavidin-rhodamine staining based microscopic analysis; format: cell-based

SMILES	EC [5]	Activity [1]	inhibition [2]	Activity [3]	inhibition in vivo at 10 mg/kg [4]	IC50 [5]
Fc1cccc(NCc2cccc(CNc3cccc(F)c3)n2)c1	10 nM	Active	50%	Non-Toxic	20.3%	–
CCc1ccc(NCc2cccc(CNc3ccc(CC)cc3)n2)cc1	1 nM	–	64%	Non-Toxic	42%	19.6 nM
Fc1cccc(NCc2ccc(CNc3cccc(F)c3)nc2)c1	1000 nM	–	–	–	–	–
FC(F)(F)c1ccc(NCc2cccc(CNc3ccc(C(F)(F)F)cc3)n2)cc1	1 nM	–	52%	Non-Toxic	20.3%	–
CCOc1ccc(CNc2ccc(NCc3ccc(OCC)cc3)nc2)cc1	100 nM	–	60%	Non-Toxic	–	–
Cc1cccc(NCc2cccc(CNc3cccc(C)c3)n2)c1	100 nM	–	60%	Non-Toxic	20.2%	–
Fc1ccc(CNc2ccc(NCc3ccc(F)cc3)nc2)cc1	> 1000 nM	–	–	–	–	–
COc1cccc(NCc2cccc(CNc3cccc(OC)c3)n2)c1	100 nM	–	37%	Non-Toxic	20.1%	–
Cc1cccc(NCc2ccc(CNc3cccc(C)c3)nc2)c1	1 nM	–	58%	Non-Toxic	–	–
c1cc(CN2CCOCC2)nc(CN2CCOCC2)c1	10 nM	–	63%	Non-Toxic	39.1%	35.7 nM
COc1ccccc1NCc1ccc(CNc2ccccc2OC)nc1	100 nM	–	< 5%	–	–	–
Clc1cccc(CNc2ccc(NCc3cccc(Cl)c3)nc2)c1	1000 nM	–	–	–	–	–
FC(F)(F)c1ccccc1NCc1cccc(CNc2ccccc2C(F)(F)F)n1	> 1000 nM	–	–	–	–	–
CCc1ccccc1NCc1cccc(CNc2ccccc2CC)n1	1 nM	–	59%	Non-Toxic	18.1%	–

More lines, main results first:

EC [5]	SMILES	Activity [1]	inhibition [2]	Activity [3]	inhibition in vivo at 10 mg/kg [4]	IC50 [5]
> 1000 nM	O=[N+]([O-])c1cccc(NCc2cccc(CNc3cccc([N+](=O)[O-])c3)n2)c1	–	–	–	–	–
> 1000 nM	O=[N+]([O-])c1ccc(NCc2cccc(CNc3ccc([N+](=O)[O-])cc3)n2)cc1	–	–	–	–	–
> 1000 nM	Cc1ccccc1NCc1cccc(CNc2ccccc2C)n1	–	–	–	–	–
> 1000 nM	CSc1ccc(NCc2cccc(CNc3ccc(SC)cc3)n2)cc1	–	–	–	–	–
100 nM	Clc1cccc(NCc2cccc(CNc3cccc(Cl)c3)n2)c1	–	34%	–	–	–
1000 nM	FC(F)(F)c1cccc(NCc2cccc(CNc3cccc(C(F)(F)F)c3)n2)c1	–	15%	–	–	–
100 nM	Clc1ccc(NCc2cccc(CNc3ccc(Cl)cc3)n2)cc1	–	21%	–	–	–
> 1000 nM	Clc1ccccc1NCc1cccc(CNc2ccccc2Cl)n1	–	–	–	–	–
100 nM	Fc1ccc(NCc2cccc(CNc3ccc(F)cc3)n2)cc1	–	5%	–	–	–
1000 nM	COc1ccccc1NCc1cccc(CNc2ccccc2OC)n1	–	0%	–	–	–
100 nM	COc1ccc(NCc2cccc(CNc3ccc(OC)cc3)n2)cc1	–	5%	–	–	–
1000 nM	Fc1ccccc1NCc1cccc(CNc2ccccc2F)n1	–	–	–	–	–
1000 nM	CCc1cccc(NCc2cccc(CNc3cccc(CC)c3)n2)c1	–	–	–	–	–
1000 nM	Cc1ccc(NCc2cccc(CNc3ccc(C)cc3)n2)cc1	–	–	–	–	–
1000 nM	COc1ccc(CNc2ccc(NCc3ccc(OC)cc3)nc2)cc1	–	–	–	–	–
100 nM	c1ccc(NCc2cccc(CNc3ccccc3)n2)cc1	–	< 1%	–	–	–
